This test addresses T1, Alexa fluor-647 labeled human PD-L1-Ig binding to Jurkat cell line over-expressing human PD-1 (Homo sapiens, UniProt Q15116).
T1 construct: expressed in transfected cells; host or cells: Jurkat
As to the kind of experiment: Jurkat-PD-1 Cell Binding High-Content Screening Assay (CBA): Method 3 (Alexa fluor-647 labeled PD-L1-Ig). The note with it: Jurkat-PD-1 cells, Alexa fluor-647 labeled PD-L1-Ig 177 nM. How it is done: Jurkat-PD-1 Cell Binding High-Content Screening Assay (CBA): Method 3
Alexa fluor-647 was covalently linked to the Ig epitope tag of human PD-L1-Ig and fluorescently labeled PD-L1-Ig was used for the binding studies with a Jurkat cell line over-expressing human PD-1. Briefly, 2.5×10^4 Jurkat-hPD-1 cells were seeded into 384 well plates in 20 μl of RPMI supplemented with 10% fetal calf serum. 12.5 nl of compound was added to cells followed by incubation at 37° C. for 2 hours. Then, 10 ul of Alexa fluor-647 labeled PD-L1-Ig (177 nM final), diluted in RPMI supplemented with 10% fetal calf serum was added to the cells and incubated for 1 hour. Cells were then fixed with 4% paraformaldehyde containing 10 μg/ml Hoechst 33342 and then washed 3× in 100 ul PBS and 100 ul of PBS was added in the final step. Data was collected using the Operetta High Content Imager and the data was analyzed using the columbus software.

Setting [1] is: head μM, read-out: CBA Method 3 μM.

Where two headings read alike, the source gives them in different places. Bridge positions count the residues as written; N and C are the ends. Square brackets hold non-standard residues; d marks the D form. Peptide text beside a SMILES is read from it. * marks the point of attachment. Bip(4'-COOH) = N[C@@H](Cc1ccc(-c2ccc(C(=O)O)cc2)cc1)C(=O)O; Bip(4'-NHAc) = CC(=O)Nc1ccc(-c2ccc(C[C@H](N)C(=O)O)cc2)cc1; Phe(3-CF3) = N[C@@H](Cc1cccc(C(F)(F)F)c1)C(=O)O; Ala(morpholin-4-yl) = N[C@@H](CN1CCOCC1)C(=O)O; Phe(4-COOH) = N[C@@H](Cc1ccc(C(=O)O)cc1)C(=O)O; Bip = N[C@@H](Cc1ccc(-c2ccccc2)cc1)C(=O)O; Phe(3-Cl) = N[C@@H](Cc1cccc(Cl)c1)C(=O)O; Phe(3-Me) = Cc1cccc(C[C@H](N)C(=O)O)c1; Val(3-OH) = CC(C)(O)[C@H](N)C(=O)O; 2Pal = N[C@@H](Cc1ccccn1)C(=O)O; Cha = N[C@@H](CC1CCCCC1)C(=O)O; Carboxymethyl = O=C(O)C*; NMeA = CN[C@@H](C)C(=O)O; Orn = NCCC[C@H](N)C(=O)O; Dab = NCC[C@H](N)C(=O)O

T1 sequence (Q15116 25-288): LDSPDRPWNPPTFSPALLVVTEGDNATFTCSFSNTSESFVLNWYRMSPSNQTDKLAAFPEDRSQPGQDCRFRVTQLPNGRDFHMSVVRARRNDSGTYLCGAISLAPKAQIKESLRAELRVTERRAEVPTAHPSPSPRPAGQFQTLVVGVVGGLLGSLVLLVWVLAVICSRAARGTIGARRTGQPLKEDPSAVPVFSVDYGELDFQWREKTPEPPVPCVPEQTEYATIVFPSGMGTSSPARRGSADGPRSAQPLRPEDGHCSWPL

In the case of `Cc1cccc(C[C@@H]2NC(=O)[C@H](CC(=O)O)NC(=O)[C@H](Cc3ccc(-c4ccc(C(=O)O)cc4)cc3)NC(=O)[C@H](CN3CCOCC3)NC(=O)CSC[C@@H](C(=O)N[C@@H](CCN)C(N)=O)NC(=O)[C@H](Cc3cnc[nH]3)NC(=O)[C@H](C(C)(C)O)NC(=O)[C@H](CC3CCCCC3)NC(=O)[C@H](CCN)NC(=O)[C@@H](CC(C)C)NC(=O)[C@H](C)N(C)C(=O)[C@H](Cc3ccc(C(=O)O)cc3)NC(=O)[C@H](Cc3ccc(-c4ccccc4)cc3)NC(=O)[C@H](Cc3ccc(-c4ccc(C(=O)O)cc4)cc3)NC2=O)c1` [Example 5133] ({CH2CO}-[Ala(morpholin-4-yl)][Bip(4'-COOH)]D[Phe(3-Me)][Bip(4'-COOH)][Bip][Phe(4-COOH)][NMeA][dL][Dab][Cha][Val(3-OH)]HC[Dab]-NH2; thioether N-14), the IC50 under setting [1] came to 0.2 µM.
In the case of `CC(C)C[C@H]1NC(=O)[C@H](C)N(C)C(=O)[C@H](Cc2ccc(C(=O)O)cc2)NC(=O)[C@H](Cc2ccc(-c3ccccc3)cc2)NC(=O)[C@H](Cc2ccc(C(=O)O)cc2)NC(=O)[C@H](Cc2cccc(C(F)(F)F)c2)NC(=O)[C@H](CC(=O)O)NC(=O)[C@H](Cc2ccc(C(=O)O)cc2)NC(=O)[C@H](CC2CCCCC2)NC(=O)CSC[C@@H](C(=O)N[C@@H](CCN)C(N)=O)NC(=O)[C@H](CCC(=O)O)NC(=O)[C@H](C(C)C)NC(=O)[C@H](CC2CCCCC2)NC(=O)[C@H](CCN)NC1=O` [Example 5195] ({CH2CO}-[Cha][Phe(4-COOH)]D[Phe(3-CF3)][Phe(4-COOH)][Bip][Phe(4-COOH)][NMeA][dL][Dab][Cha]VEC[Dab]-NH2; thioether N-14), the IC50 (nM, read-out: CBA Method 3) is 0.0017 µM.
Consider `Cc1cccc(C[C@@H]2NC(=O)[C@H](CC(=O)O)NC(=O)[C@H](Cc3ccc(OCC(=O)O)cc3)NC(=O)[C@H](Cc3ccccn3)NC(=O)CSC[C@@H](C(=O)N[C@@H](CCN)C(N)=O)NC(=O)[C@H](CCCN)NC(=O)[C@H](C(C)C)NC(=O)[C@H](CC3CCCCC3)NC(=O)[C@H](CCN)NC(=O)[C@@H](CC(C)C)NC(=O)[C@H](C)N(C)C(=O)[C@H](CCC(N)=O)NC(=O)[C@H](Cc3ccc(-c4ccccc4)cc3)NC(=O)[C@H](Cc3ccc(C(=O)O)cc3)NC2=O)c1` [Example 5172] ({CH2CO}-[2Pal]Y(Carboxymethyl)D[Phe(3-Me)][Phe(4-COOH)][Bip]Q[NMeA][dL][Dab][Cha]V[Orn]C[Dab]-NH2; thioether N-14), for which the IC50 under setting [1] is 0.33 µM.
On to `Cc1cccc(C[C@@H]2NC(=O)[C@H](CC(=O)O)NC(=O)[C@H](Cc3ccc(OCC(=O)O)cc3)NC(=O)[C@H](Cc3cccc(Cl)c3)NC(=O)CSC[C@@H](C(=O)N[C@@H](CCN)C(N)=O)NC(=O)[C@H](CCCN)NC(=O)[C@H](C(C)C)NC(=O)[C@H](CC3CCCCC3)NC(=O)[C@H](CCN)NC(=O)[C@@H](CC(C)C)NC(=O)[C@H](C)N(C)C(=O)[C@H](CCC(N)=O)NC(=O)[C@H](Cc3ccc(-c4ccccc4)cc3)NC(=O)[C@H](Cc3ccc(C(=O)O)cc3)NC2=O)c1` [Example 5286] ({CH2CO}-[Phe(3-Cl)]Y(Carboxymethyl)D[Phe(3-Me)][Phe(4-COOH)][Bip]Q[NMeA][dL][Dab][Cha]V[Orn]C[Dab]-NH2; thioether N-14), for which, for the setting “nM, read-out: CBA Method 3”, the IC50 worked out at 0.0018 µM.
In the case of `CC(=O)Nc1ccc(-c2ccc(C[C@@H]3NC(=O)[C@H](Cc4cccc(C)c4)NC(=O)[C@H](CC(=O)O)NC(=O)[C@H](Cc4ccc(-c5ccc(C(=O)O)cc5)cc4)NC(=O)[C@H](CN4CCOCC4)NC(=O)CSC[C@@H](C(=O)N[C@@H](CCN)C(N)=O)NC(=O)[C@H](CCC(=O)O)NC(=O)[C@H](C(C)C)NC(=O)[C@H](CC4CCCCC4)NC(=O)[C@H](CC(N)=O)NC(=O)[C@@H](CC(C)C)NC(=O)[C@H](C)N(C)C(=O)[C@H](Cc4ccc(OCC(=O)O)cc4)NC(=O)[C@H](Cc4ccc(-c5ccccc5)cc4)NC3=O)cc2)cc1` [Example 5127] ({CH2CO}-[Ala(morpholin-4-yl)][Bip(4'-COOH)]D[Phe(3-Me)][Bip(4'-NHAc)][Bip]Y(Carboxymethyl)[NMeA][dL]N[Cha]VEC[Dab]-NH2; thioether N-14), the IC50 under setting [1] stood at 0.02 µM.
